Experimental findings from patent US20090209568A1, “Spiro [Benzopyran] or Spiro [Benzofuran] Derivatives Which Inhibit the Sigma Receptor” (priority 2006, published 2009) are described below.

Molecules are shown by their SMILES.

One test addresses T1, σ1-receptor (Cavia porcellus, UniProt Q60492).
T1 construct: guinea pig brains were homogenized in 10 vols; (w/v) of Tris-HCl 50 mM 0.32 M sucrose; from tissue; host or cells: guinea pig brain membranes
In words: Sigma-1 receptor radioligand binding, [3H](+)pentazocine (Version A / Version B). Also on record: species or system guinea pig. As to conditions: guinea pig brain membranes; for inhibition at 0.1 µM: compound 10^−7 M; for inhibition at 0.01 µM: compound 10^−8 M. As for the experimental part:
Brain membrane preparation and binding assays for the σ1-receptor were performed as described (DeHaven-Hudkins et al., 1992) with some modifications. In brief, guinea pig brains were homogenized in 10 vols. (w/v) of Tris-HCl 50 mM 0.32 M sucrose, pH 7.4, with a Kinematica Polytron PT 3000 at 15000 r.p.m. for 30 s. The homogenate was centrifuged at 1000 g for 10 min at 4° C. and the supernatants collected and centrifuged again at 48000 g for 15 min at 4° C. The pellet was resuspended in 10 volumes of Tris-HCl buffer (50 mM, pH 7.4), incubated at 37° C. for 30 min, and centrifuged at 48000 g for 20 min at 4° C. Following this, the pellet was resuspended in fresh Tris-HCl buffer (50 mM, pH 7.4) and stored on ice until use.
Each assay tube contained 10 μL of [^3H](+)pentazocine (final concentration of 0.5 nM), 900 μL of the tissue suspension to a final assay volume of 1 mL and a final tissue concentration of approximately 30 mg tissue net weight/mL. Non-specific binding was defined by addition of a final concentration of 1 μM haloperidol. All tubes were incubated at 37° C. for 150 min before termination of the reaction by rapid filtration over Schleicher & Schuell GF 3362 glass fibre filters [previously soaked in a solution of 0.5% polyethylenimine for at least 1 h]. Filters were then washed with four times with 4 mL of cold Tris-HCl buffer (50 mM, pH 7.4). Following addition of scintillation cocktail, the samples were allowed to equilibrate overnight. The amount of bound radioactivity was determined by liquid scintillation spectrometry using a Wallac Winspectral 1414 liquid scintillation counter. Protein concentrations were determined by the method of Lowry et al. (1951).
In brief the σ1-receptor preparation was prepared from guinea pig brain. The brains were homogenized in 5 to 6 times of volume sucrose solution (0.32M) and homogenized. The homogenate was centrifuged at 2900 rpm, 4° C., 10 min). the supernatant was centrifuged again (23500×g, 4° C., 20 min). The pellet was resuspended in Tris-buffer, incubated for 30 min at room temperature and centrifuged f (23500×g, 4° C., 20 min). The pellet was resuspended in cold TRIS-buffer and homogenized. Then the protein content was measured (approx. 1.5 mg/mL) and the homogenate frozen at −80° C. for later use.
The radioligand used was [^3H]-(+)-Pentazocin in TRIS-buffer. In a volume of 200 μL 50 μL TRIS-buffer, 50 μL compound solution of varying concentration, 50 μL radioligand-solution (8 nM; resulting in 2 nM in the assay) and finally 50 μL of receptor preparation (approx. 1.5 mg/mL) were given into a well of a microplate equipped with a filter. The plate was closed and stirred for 2.5 h at 37° C. and 500 rpm. Following that the solvents were removed by a harvester through the filter. After rinsing with H2O the filter was measured in a scintillation counter ([^3H]-protocol).

The test system of test [1] is capsaicin-induced mechanical allodynia. Put plainly: Effect on capsaicin in development of mechanical allodynia (von Frey filaments). The test is classed as in vivo. Conditions: 16 mg/kg i.p., mice, 1 μg capsaicin into paw, von Frey mechanical stimulus. The protocol:
This model uses the von-Frey Filaments and is a model to test the effects or symptoms of neuropathic pain, allodynia etc. […] The test protocol for all tests with von Frey filaments: After habituation mice were first treated with the test-compound (or solvent in controls). Then 1 μg capsaicin (1% DMSO) is injected into their paw resulting in developing pain in the effected paw. The effected paw is then treated with a mechanical stimulus and the latency time before the paw is withdrawn is measured.

T1 sequence (Q60492 whole entry): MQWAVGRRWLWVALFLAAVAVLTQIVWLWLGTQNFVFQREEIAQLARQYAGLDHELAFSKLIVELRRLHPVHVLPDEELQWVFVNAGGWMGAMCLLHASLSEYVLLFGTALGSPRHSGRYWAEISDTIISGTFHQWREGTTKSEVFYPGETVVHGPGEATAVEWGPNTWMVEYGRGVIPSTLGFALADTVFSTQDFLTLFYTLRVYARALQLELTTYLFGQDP

In the case of `COC1OC2(CCN(Cc3ccccc3)C2)c2ccccc21` (mixture of isomers) [Example 25, cis/trans-1′-Benzyl-3-methoxy-3H-spiro[[2]benzofuran-1,3′-pyrrolidin]], on σ1-receptor, the inhibition at 0.1 µM is 88% and 0.01 µM produced 22.2% inhibition. Further, the “% of pain relief” value in test [1] turned out to be 44.28±9.49%.
The like results for `CCCCN1CCC2(C1)OC(OC)Cc1ccccc12` (mixture of isomers) [Example 22, cis/trans-1′-Butyl-3-methoxy-3,4-dihydrospiro[[2]benzopyran-1,3′-pyrrolidin]] were, in that order, 52%, 29% and 45.67±9.62%.

The inhibition is the relative decrease from the control value, in per cent. A lower inhibition goes with little suppression.
